In brackets after ≈: the same amount, converted by molar mass.

For orientation: IC50 means the concentration that gives 50% inhibition.

Assay [1] deals with Phospho-N-acetylmuramoyl-pentapeptide-transferase (Escherichia coli, UniProt E2QF15). The assay is described as follows: Inhibition of MraY in Escherichia coli.
The subject of assay [2] is Staphylococcus aureus. The assay is described as follows: Antibacterial activity against multi drug resistance Staphylococcus aureus after 20 hrs by NCCLS-based two-fold broth dilution method. The format is functional.
Assay [3] has as its system Staphylococcus aureus. The assay is described as follows: Antibacterial activity against methicillin resistant Staphylococcus aureus after 20 hrs by NCCLS-based two-fold broth dilution method. Particulars: read-out: MIC. The format is functional.
The subject of assay [4] is Staphylococcus aureus. In words: Antibacterial activity against Staphylococcus aureus after 20 hrs by NCCLS-based two-fold broth dilution method. The class given is functional.
Assay [5] has as its system Mycolicibacterium smegmatis. In words: Antibacterial activity against Mycobacterium smegmatis after 20 hrs by NCCLS-based two-fold broth dilution method. The format is functional. In general terms: In broth dilution the organism is exposed to a series of concentrations in liquid medium.
For assay [6], the system named is Enterococcus faecalis. In words: Antibacterial activity against t Enterococcus faecalis VRE after 20 hrs by NCCLS-based two-fold broth dilution method. The class given is functional. The following applies: read-out: MIC.
In assay [7] the test system is Staphylococcus aureus. In words: Antibacterial activity against methicillin susceptible Staphylococcus aureus after 20 hrs by NCCLS-based two-fold broth dilution method. The class given is functional. The following applies: read-out: MIC.
Assay [8] deals with Pseudomonas aeruginosa. In words: Antibacterial activity against Pseudomonas aeruginosa YY165. The class given is functional.
The test system of assay [9] is Enterococcus faecalis. In words: Antibacterial activity against t Enterococcus faecalis after 20 hrs by NCCLS-based two-fold broth dilution method. The following applies: read-out: MIC. The class given is functional.
Assay [10] concerns Haemophilus influenzae. The assay is described as follows: Antibacterial activity against Haemophilus influenzae ATCC 10211. The class given is functional.
The test system of assay [11] is Pseudomonas aeruginosa. The assay is described as follows: Antibacterial activity against Pseudomonas aeruginosa after 20 hrs by NCCLS-based two-fold broth dilution method. The format is functional.
Assay [12] concerns Enterococcus faecalis. The assay is described as follows: Antibacterial activity against Enterococcus faecalis ATCC 29212. The class given is functional.
The test system of assay [13] is Enterococcus faecium. The assay is described as follows: Antibacterial activity against t Enterococcus faecium after 20 hrs by NCCLS-based two-fold broth dilution method. The format is functional.
In assay [14] the test system is Enterococcus faecium. In words: Antibacterial activity against Enterococcus faecium ATCC 19434. The format is functional.
For assay [15], the system named is Haemophilus influenzae. In words: Antibacterial activity against Haemophilus influenzae after 20 hrs by NCCLS-based two-fold broth dilution method. The format is functional.
Assay [16] deals with Staphylococcus aureus. In words: Antibacterial activity against methicillin resistant Staphylococcus aureus SR3637. The class given is functional.
Assay [17] relates to Staphylococcus aureus. The assay is described as follows: Antibacterial activity against methicillin susceptible Staphylococcus aureus ATCC 29213. The class given is functional.
The test system of a further assay is Streptococcus pneumoniae. The assay is described as follows: Antibacterial activity against Streptococcus pneumoniae after 20 hrs by NCCLS-based two-fold broth dilution method. The format is functional.
Assay [18] concerns Enterococcus faecium. The assay is described as follows: Antibacterial activity against Enterococcus faecium SR7917 (VRE). The class given is functional.
Assay [19] deals with Enterococcus faecalis. In words: Antibacterial activity against Enterococcus faecalis SR7914 (VRE). The class given is functional.
The test system of assay [20] is Mycolicibacterium fortuitum. In words: Antibacterial activity against Mycobacterium fortuitum. The class given is functional.
A further assay relates to Bacillus subtilis. The assay is described as follows: Antibacterial activity against Bacillus subtilis. The format is functional.
In assay [21] the test system is Staphylococcus aureus. The assay is described as follows: Antibacterial activity against Staphylococcus aureus. The format is functional.
The next assay deals with Escherichia coli. The assay is described as follows: Antibacterial activity against Escherichia coli. The format is functional.
Assay [22] relates to Mycolicibacterium smegmatis. The assay is described as follows: Antibacterial activity against Mycobacterium smegmatis. The class given is functional.
The subject of assay [23] is Mycobacterium intracellulare. In words: Antibacterial activity against Mycobacterium intracellulare. The class given is functional.
The subject of a further assay is Mycobacterium avium. The assay is described as follows: Antibacterial activity against Mycobacterium avium. The class given is functional.
Assay [24] concerns Mycobacterium tuberculosis. The assay is described as follows: Antibacterial activity against Mycobacterium tuberculosis. The class given is functional.
Assay [25] addresses T1, Phospho-N-acetylmuramoyl-pentapeptide-transferase (Bacillus subtilis (strain 168), UniProt Q03521).
T1 sequence (Q03521 whole entry): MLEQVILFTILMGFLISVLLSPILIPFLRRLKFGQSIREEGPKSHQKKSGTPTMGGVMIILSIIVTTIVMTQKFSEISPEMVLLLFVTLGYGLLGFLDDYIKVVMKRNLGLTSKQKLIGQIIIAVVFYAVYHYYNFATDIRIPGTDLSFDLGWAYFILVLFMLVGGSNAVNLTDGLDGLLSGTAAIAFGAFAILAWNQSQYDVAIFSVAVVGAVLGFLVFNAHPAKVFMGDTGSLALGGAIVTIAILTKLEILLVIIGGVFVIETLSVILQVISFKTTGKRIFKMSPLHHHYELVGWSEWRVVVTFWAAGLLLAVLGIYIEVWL
In words: Inhibition of MraY in Bacillus subtilis using UDP-MurNAc-[14C]pentapeptide as substrate by radioactivity scanning assay.

Sequence of Phospho-N-acetylmuramoyl-pentapeptide-transferase (Escherichia coli, UniProt E2QF15) (E2QF15 whole entry): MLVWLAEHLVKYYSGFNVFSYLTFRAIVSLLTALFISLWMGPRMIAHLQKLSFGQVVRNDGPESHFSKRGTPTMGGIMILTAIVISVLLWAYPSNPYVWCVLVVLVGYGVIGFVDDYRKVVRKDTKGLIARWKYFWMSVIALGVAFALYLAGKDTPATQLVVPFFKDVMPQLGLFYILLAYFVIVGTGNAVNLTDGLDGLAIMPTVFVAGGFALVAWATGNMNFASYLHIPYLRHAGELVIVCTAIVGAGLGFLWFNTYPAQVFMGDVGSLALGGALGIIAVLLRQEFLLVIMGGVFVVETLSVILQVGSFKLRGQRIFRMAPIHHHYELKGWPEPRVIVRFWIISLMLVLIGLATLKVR

In turn, `NC[C@H]1O[C@@H](OC[C@H]2O[C@@H](n3ccc(=O)[nH]c3=O)[C@H](O)[C@@H]2O)[C@H](O)[C@@H]1O` yielded an IC50 in assay [1] of 50 µM.

Take `CCCCCCCCCCCCCCCC(=O)O[C@H]1CN(C)[C@@H]([C@H](O[C@@H]2O[C@H](CN)[C@@H](O)[C@H]2O)[C@H]2O[C@@H](n3ccc(=O)[nH]c3=O)[C@H](O)[C@@H]2O)C(=O)N(C)[C@@H]1C(=O)O` [PALMITOYL CAPRAZOL]: the MIC with Staphylococcus aureus [2] was determined as 3.13 µg/mL (≈ 3.85 µM); in the assay with Staphylococcus aureus [3], 6.25 µg/mL (≈ 7.68 µM); in the assay with Staphylococcus aureus [4], 1.56 µg/mL (≈ 1.92 µM); in assay [5], 6.25 µg/mL (≈ 7.68 µM); in the assay with Enterococcus faecalis [6], 12.5 µg/mL (≈ 15.4 µM).

Regarding `CCCCCCCCCCCCCCCC(=O)O[C@H]1CN[C@@H]([C@H](O[C@@H]2O[C@H](CN)[C@@H](O)[C@H]2O)[C@H]2O[C@@H](n3ccc(=O)[nH]c3=O)[C@H](O)[C@@H]2O)C(=O)N(C)[C@@H]1C(=O)O` [DESMETHYLPALMITOYLCAPRAZOL], the MIC was 3.13 µg/mL (≈ 3.91 µM) with Staphylococcus aureus [2]; 6.25 to 12.5 µg/mL (≈ 7.81 to 15.6 µM) in the assay on Staphylococcus aureus [3]; 1.56 µg/mL (≈ 1.95 µM) against Staphylococcus aureus [4]; 25 µg/mL (≈ 31.3 µM) in [5]; 12.5 µg/mL (≈ 15.6 µM) with Enterococcus faecalis [6].

Regarding `CCCCCCCCC(CCCCCCCC)C(=O)N[C@@H]1CCN[C@@H]([C@H](O[C@@H]2O[C@H](CN)[C@@H](O)[C@H]2O)[C@H]2O[C@@H](n3ccc(=O)[nH]c3=O)[C@H](O)[C@@H]2O)C1`, the MIC with Staphylococcus aureus [7] is 4 µg/mL (≈ 5.41 µM); in the assay with Staphylococcus aureus [3], 8 µg/mL (≈ 10.8 µM); in the assay on Pseudomonas aeruginosa [8] it was 16 µg/mL (≈ 21.6 µM); with Enterococcus faecalis [9], 4 µg/mL (≈ 5.41 µM); in the assay with Haemophilus influenzae [10] it was 32 µg/mL (≈ 43.2 µM); in the assay with Pseudomonas aeruginosa [11] it was 32 µg/mL (≈ 43.2 µM). Besides, the MIC against Enterococcus faecalis [12] is 4 µg/mL (≈ 5.41 µM); with Enterococcus faecium [13], 8 µg/mL (≈ 10.8 µM); with Enterococcus faecium [14] it was 8 µg/mL (≈ 10.8 µM); against Haemophilus influenzae [15], 16 µg/mL (≈ 21.6 µM); against Staphylococcus aureus [16], 8 µg/mL (≈ 10.8 µM); against Staphylococcus aureus [17], 4 µg/mL (≈ 5.41 µM). Moreover, the MIC in the assay with Streptococcus pneumoniae amounted to 16 µg/mL (≈ 21.6 µM); in the assay with Enterococcus faecalis [6] it was 4 µg/mL (≈ 5.41 µM); with Enterococcus faecium [18] it was 8 µg/mL (≈ 10.8 µM); in the assay on Enterococcus faecalis [19], 4 µg/mL (≈ 5.41 µM).

In the case of `CO[C@@H]1[C@@H](OC)[C@H](C)O[C@@H](OC(=O)C[C@@H](C)CC(=O)O[C@@H](CCCCCCCCCCC(C)C)CC(=O)O[C@H]2CN(C)[C@@H]([C@H](O[C@@H]3O[C@H](CN)[C@@H](O)[C@H]3O)[C@H]3O[C@@H](n4ccc(=O)[nH]c4=O)[C@H](O)[C@@H]3O)C(=O)N(C)[C@@H]2C(=O)O)[C@@H]1OC`, the MIC in assay [20] was 50 µg/mL (≈ 43.6 µM); against Bacillus subtilis it was 6.25 to 12.5 µg/mL (≈ 5.45 to 10.9 µM); against Staphylococcus aureus [21] it was 1.56 to 6.25 µg/mL (≈ 1.36 to 5.45 µM); against Escherichia coli it was 100 µg/mL (≈ 87.2 µM); in [22] it was 1.56 to 3.13 µg/mL (≈ 1.36 to 2.73 µM); in assay [23], 1.56 to 25 µg/mL (≈ 1.36 to 21.8 µM). In addition, the MIC was in the range of 6.25 to 50 µg/mL (≈ 5.45 to 43.6 µM) in the assay on Mycobacterium avium and 3.13 to 12.5 µg/mL (≈ 2.73 to 10.9 µM) in [24].

In the case of `NC[C@H]1O[C@@H](O[C@@H](c2cn(Cc3ccc(COc4ccc(C(=O)c5ccccc5)cc4)cc3)nn2)[C@H]2O[C@@H](n3ccc(=O)[nH]c3=O)[C@H](O)[C@@H]2O)[C@H](O)[C@@H]1O`, the IC50 in assay [25] is 50 µM.

The values are drawn from ChEMBL document CHEMBL4402510, “Caprazamycins: Promising lead structures acting on a novel antibacterial target MraY” (Eur J Med Chem, 2019).
